Experimental data reported in patent US12384797B2, “Thioeno[3,2-b] pyridin-7-amine compounds for treating familial dysautonomia” (PTC THERAPEUTICS, INC., priority 2019, dated 2025).

System: Elongator complex protein 1 (ELP1, also referred to as IKBKAP)
Assay: IKBKAP-HTRF assay (IKBKAP protein in lysates of FD patient-derived fibroblasts)
Assay type: cell-based, human
Details: 48 hours incubation, 7-point concentration curve
Method: The assay is used for the quantitative determination of Elongator complex protein 1 (ELP1, also referred to as IKBKAP) concentration in cell lysates using the HTRF® (Homogeneous Time-Resolved Fluorescence) technology. IKBKAP is detected in a sandwich HTRF assay by use of an anti-IKAP antibody labeled with a donor and an anti-IKAP antibody labeled with an acceptor.
Cells were thawed and incubated in DMEM-10% FBS for 72 hours. Cells were trypsinized, counted, and re-suspended to a concentration of 50,000 cells/mL in DMEM-10% FBS. A 199 μL aliquot of the cell suspensions were plated at 10,000 cells per well in a 96 well microtiter plate and incubated for 3 to 5 hours. […] Test compounds were serially diluted 3.16-fold in 100% DMSO to generate a 7-point concentration curve. A 1 μL aliquot of 200× compound solution was transferred to cell-containing wells, and cells were incubated for 48 hours in a cell culture incubator (37° C., 5% CO2, 100% relative humidity). Triplicate samples were set up for each compound concentration. After 48 hours, the supernatant was removed from the cells and 50 μL of the 1×LB4 lysis buffer, containing protease inhibitors, was added to the cells and incubated with shaking at room temperature for 1 hour. A 36 μL aliquot of this lysate was subsequently transferred to the 384-well plate containing 4 μL of the antibody solution (1:50 dilution of anti IKAP d2 and anti-IKAP K(9+8) in detection buffer). The 384-well plate was then centrifuged for 1 minute to bring the solutions to the bottom of the plate and incubated overnight at 4° C. Fluorescence for each well of the plate at 665 nm and 620 nm was measured was on the EnVision plate reader (Perkin Elmer). The ΔF for each sample is calculated by:
[formula] wherein Signal is the normalized fluorescence for each sample well and Blank is the average normalized average fluorescence for the Blank control wells.
The maximum fold increase (MFI) in IKBKAP protein abundance for compounds of Formula (I) or a form thereof relative to the vehicle control are provided in Table 1. MFI was calculated by dividing the ΔF value for each sample well by the sample ΔF for the vehicle control wells.
The EC2x for IKBKAP protein expression obtained from the 7-point concentration curve generated for each test compound according to the protocol in Biological Example 1 are also provided in Table 1. The term “EC2x for IKBKAP protein expression” is defined as the concentration of test compound that is effective in producing two times the amount of IKBKAP protein in a FD patient cell compared to the amount produced from the DMSO vehicle control.

| SMILES | EC2x for IKBKAP protein expression (concentration producing two times the amount of IKBKAP protein vs DMSO vehicle control) | MFI (maximum fold increase in IKBKAP protein abundance relative to the vehicle control) |
| --- | --- | --- |
| N[C@@H](CO)Cc1cc2nc(Cl)cc(NCc3ccco3)c2s1 [Compound 17, (2R)-2-amino-3-(5-chloro-7-{[(furan-2-yl)methyl]amino}thieno[3,2-b]pyridin-2-yl)propan-1-ol] | ***** (≤0.005 μM is indicated by five stars (*****)) | **** (between >3.9 and ≤4.9 is indicated by four stars (****)) |
| Cc1c(C[C@H](C)N)sc2c(NCc3ccco3)cc(Cl)nc12 [Compound 18, 2-[(2S)-2-aminopropyl]-5-chloro-N-[(furan-2-yl)methyl]-3-methylthieno[3,2-b]pyridin-7-amine] | ***** (≤0.005 μM is indicated by five stars (*****)) | ***** (>4.9 is indicated by five stars (*****)) |
| CC[C@H](N)Cc1sc2c(NCc3ccco3)cc(Cl)nc2c1C [Compound 19, 2-[(2S)-2-aminobutyl]-5-chloro-N-[(furan-2-yl)methyl]-3-methylthieno[3,2-b]pyridin-7-amine] | ***** (≤0.005 μM is indicated by five stars (*****)) | ***** (>4.9 is indicated by five stars (*****)) |
| Cc1c(C[C@H](C)N)sc2c(NCc3ccco3)cc(C#N)nc12 [Compound 20, 2-[(2S)-2-aminopropyl]-7-{[(furan-2-yl)methyl]amino}-3-methylthieno[3,2-b]pyridine-5-carbonitrile] | ***** (≤0.005 μM is indicated by five stars (*****)) | ***** (>4.9 is indicated by five stars (*****)) |
| Cc1c([C@H](C)N)sc2c(NCc3ccco3)cc(Cl)nc12 [Compound 21, 2-[(1S)-1-aminoethyl]-5-chloro-N-[(furan-2-yl)methyl]-3-methylthieno[3,2-b]pyridin-7-amine] | **** (between >0.005 μM and ≤0.02 μM is indicated by four stars (****)) | **** (between >3.9 and ≤4.9 is indicated by four stars (****)) |
| Cc1c([C@@H](C)N)sc2c(NCc3ccco3)cc(Cl)nc12 [Compound 22, 2-[(1R)-1-aminoethyl]-5-chloro-N-[(furan-2-yl)methyl]-3-methylthieno[3,2-b]pyridin-7-amine] | * (An EC2x>1 μM is indicated by one star (*)) | ** (between >1.9 and ≤2.9 is indicated by two stars (**)) |
| C[C@@H](N)c1cc2nc(Cl)cc(NCc3ccco3)c2s1 [Compound 23, 2-[(1R)-1-aminoethyl]-5-chloro-N-[(furan-2-yl)methyl]thieno[3,2-b]pyridin-7-amine] | * (An EC2x>1 μM is indicated by one star (*)) | ** (between >1.9 and ≤2.9 is indicated by two stars (**)) |
| C[C@H](N)c1cc2nc(Cl)cc(NCc3ccco3)c2s1 [Compound 24, 2-[(1S)-1-aminoethyl]-5-chloro-N-[(furan-2-yl)methyl]thieno[3,2-b]pyridin-7-amine] | * (An EC2x>1 μM is indicated by one star (*)) | ** (between >1.9 and ≤2.9 is indicated by two stars (**)) |
| CNCc1cc2nc(Cl)cc(NCc3ccco3)c2s1 [Compound 25, 5-chloro-N-[(furan-2-yl)methyl]-2-[(methylamino)methyl]thieno[3,2-b]pyridin-7-amine] | *** (between >0.02 μM and ≤0.5 μM is indicated by three stars (***)) | *** (between >2.9 and ≤3.9 is indicated by three stars (***)) |
| CN[C@@H](C)c1sc2c(NCc3ccco3)cc(Cl)nc2c1C [Compound 26, 5-chloro-N-[(furan-2-yl)methyl]-3-methyl-2-[(1S)-1-(methylamino)ethyl]thieno[3,2-b]pyridin-7-amine] | *** (between >0.02 μM and ≤0.5 μM is indicated by three stars (***)) | **** (between >3.9 and ≤4.9 is indicated by four stars (****)) |
| CNCc1sc2c(NCc3ccco3)cc(Cl)nc2c1C [Compound 27, 5-chloro-N-[(furan-2-yl)methyl]-3-methyl-2-[(methylamino)methyl]thieno[3,2-b]pyridin-7-amine] | *** (between >0.02 μM and ≤0.5 μM is indicated by three stars (***)) | **** (between >3.9 and ≤4.9 is indicated by four stars (****)) |
| Cc1c(C[C@H](C)N)sc2c(NCc3cccs3)cc(Cl)nc12 [Compound 28, 2-[(2S)-2-aminopropyl]-5-chloro-3-methyl-N-[(thiophen-2-yl)methyl]thieno[3,2-b]pyridin-7-amine] | ***** (≤0.005 μM is indicated by five stars (*****)) | ***** (>4.9 is indicated by five stars (*****)) |
| Cc1c(C[C@H](C)N)sc2c(NCc3ccccc3F)cc(Cl)nc12 [Compound 29, 2-[(2S)-2-aminopropyl]-5-chloro-N-[(2-fluorophenyl)methyl]-3-methylthieno[3,2-b]pyridin-7-amine] | ***** (≤0.005 μM is indicated by five stars (*****)) | ***** (>4.9 is indicated by five stars (*****)) |
| Cc1c([C@@H](N)C(C)C)sc2c(NCc3ccco3)cc(Cl)nc12 [Compound 30, 2-[(1S)-1-amino-2-methylpropyl]-5-chloro-N-[(furan-2-yl)methyl]-3-methylthieno[3,2-b]pyridin-7-amine] | * (An EC2x>1 μM is indicated by one star (*)) | * (An MFI≤1.9 is indicated by one star (*)) |
| Cc1c([C@H](N)C(C)C)sc2c(NCc3ccco3)cc(Cl)nc12 [Compound 31, 2-[(1R)-1-amino-2-methylpropyl]-5-chloro-N-[(furan-2-yl)methyl]-3-methylthieno[3,2-b]pyridin-7-amine] | * (An EC2x>1 μM is indicated by one star (*)) | * (An MFI≤1.9 is indicated by one star (*)) |
| CN[C@H](c1sc2c(NCc3ccco3)cc(Cl)nc2c1C)C(C)C [Compound 32, 5-chloro-N-[(furan-2-yl)methyl]-3-methyl-2-[(1S)-2-methyl-1-(methylamino)propyl]thieno[3,2-b]pyridin-7-amine] | * (An EC2x>1 μM is indicated by one star (*)) | * (An MFI≤1.9 is indicated by one star (*)) |
